Results on 11 molecules are retold here after PMC8976910, “Novel oxadiazole derivatives as potent inhibitors of α-amylase and α-glucosidase enzymes: Synthesis, in vitro evaluation, and molecular docking studies” (Iranian Journal of Basic Medical Sciences, 2021).

Data set [1] addresses T1, porcine pancreatic amylase (Sus scrofa, UniProt P00690).
T1 sequence (P00690 16-511): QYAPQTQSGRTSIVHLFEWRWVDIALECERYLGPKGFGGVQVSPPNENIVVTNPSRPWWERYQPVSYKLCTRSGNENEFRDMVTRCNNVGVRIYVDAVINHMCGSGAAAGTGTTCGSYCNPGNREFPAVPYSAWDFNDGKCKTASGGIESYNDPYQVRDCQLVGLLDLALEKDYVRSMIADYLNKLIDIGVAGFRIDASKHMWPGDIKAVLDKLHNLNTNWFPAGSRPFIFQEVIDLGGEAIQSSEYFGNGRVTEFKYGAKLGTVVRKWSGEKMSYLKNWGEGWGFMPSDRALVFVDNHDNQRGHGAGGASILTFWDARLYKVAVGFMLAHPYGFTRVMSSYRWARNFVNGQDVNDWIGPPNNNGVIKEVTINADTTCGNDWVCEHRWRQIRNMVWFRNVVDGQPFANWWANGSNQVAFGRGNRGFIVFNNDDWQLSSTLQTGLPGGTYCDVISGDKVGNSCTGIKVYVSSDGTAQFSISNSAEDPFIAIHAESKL
Description: In vitro alpha-amylase inhibitory activity (starch/DNS, 540 nm). To be noted: for % Inhibition (alpha-amylase): concentration not stated (test compounds 1–100 μg/ml); for IC50: porcine pancreatic amylase, pH 6.8, 25 °C, test compounds 1–100 μg/ml, ± SEM, read-out: IC50 µg/ml ± SEM (alpha-amylase inhibition) (converted). Format: biochemical. The procedure: To this reaction mixture, 1% starch solution was added (500 μl in 0.2 mM phosphate buffer, pH 6.8) and incubated for an additional 10 min. 1 ml of DNS (di-nitro-salicylic-acid) color reagent was added to arrest the reaction. The reaction mixture was boiled for 10 min and then brought to ambient temperature. The absorbance of the resulting mixture was measured at 540 nm and the inhibitory activity was calculated using the following formula.
% Inhibition =(Astandard -Asample)/Astandard× 100
The IC50 was calculated using non-linear regression plot of % inhibition versus concentrations with the help of GraphPad Prism, version 6.0.

The next data set relates to α-glucosidase. Description: In vitro alpha-glucosidase inhibitory activity (p-NPG, 400 nm). Format: biochemical. To be noted: for % Inhibition (alpha-glucosidase): concentration not stated (test compounds 1-100 μg/ml); for IC50 µg/ml ± SEM (alpha-glucosidase inhibition): p-NPG substrate, 37 °C, test compounds 1-100 μg/ml. The procedure:
The α-glucosidase inhibitory activity was determined according to a previously reported method with slight modifications([19]). […] A 500 μl solution was prepared by adding 10 μl of test compounds (1-100 μg/ml) and 490 μl of phosphate buffer (pH 6.9). 250 μl of 5mM p-nitrophenyl α-d-glucopyranoside (p-NPG) were added to this reaction mixture and incubated for 10 min at 37 °C. […] The α-glucosidase inhibitory activity was calculated as a measure of p-nitrophenol released from p-NPG. […] The percentage inhibition was calculated using the following formula; % Inhibition = (^Astandard^- Asample) / ^Astandard × 100.

The subject of data set [2] is 3T3 (mouse fibroblast) cells. The data set is described as follows: MTT assay for cytotoxicity analysis. Format: cell-based. To be noted: for cytotoxic effects against 3T3 (mouse fibroblast) cells, in words: MTT, 1.875-30 µM; for inhibition at 1.875 µM / inhibition at 3.75 µM / inhibition at 7.5 µM / inhibition at 15 µM / inhibition at 30 µM: Mus musculus, NIH3T3, 48 h, 3T3 cells, 48 hr, read-out: % Growth Inhibition. The method, then: Cytotoxic activity of compounds was evaluated in 96-well flat-bottomed microplates by using the standard MTT (3-[4, 5-dimethylthiazole-2-yl]-2, 5-diphenyl-tetrazolium bromide) colorimetric assay ([34]). For this purpose, 3T3 (mouse fibroblast, ATCC # CRL-1658, Lot # 59049195) cells were cultured in Dulbecco’s Modified Eagle Medium, supplemented with 5% fetal bovine serum (FBS), 100 IU/ml penicillin, and 100 µg/ml streptomycin in 75 cm^2 flasks, and kept in a 5% CO2 incubator at 37 °C. Exponentially growing cells were harvested, counted with a hemocytometer, and diluted with a particular medium. Cell culture with concentration of 5x10^4 cells/ml was prepared and introduced (100 µl/well) into 96-well plates. After overnight incubation, the medium was removed and 200 µl of fresh medium was added with various oxadiazole concentrations (30 µM, 15 µM, 7.5 µM, 3.75 µM, and 1.875 µM). After 48 hr, 200 µl MTT (0.5 mg/ml) was added to each well and incubated further for 4 hr. Subsequently, 100 µl of DMSO was added to each well. The extent of MTT reduction to formazan within cells was calculated by measuring the absorbance at 540 nm, using a microplate reader (Spectra Max Plus, Molecular Devices, CA, USA). The cytotoxicity was recorded as concentration causing 50% growth inhibition (IC50) for 3T3 cells. The percent inhibition was calculated by using the following formula;
% Inhibition=100-((mean of O.D of test compound-mean of O.D of negative control)/ (mean of O.D of positive control - mean of O.D of negative control) *100).
The results (% inhibition) were processed by using SoftMax Pro software (Molecular Device, USA).

≈ marks a conversion by molar mass, not a printed value.

In the case of `OCCSc1nnc(-c2ccccn2)o1` [4a(a), 2-{[5-(pyridin-2-yl)-1,3,4-oxadiazol-2-yl]sulfanyl} ethan-1-ol], in data set [1], the “% Inhibition (alpha-amylase)” value is listed as 9.42% and the IC50 was 1300 µM. Besides, in the data set with α-glucosidase, the “% Inhibition (alpha-glucosidase)” value was 97.2% and the “IC50 µg/ml ± SEM (alpha-glucosidase inhibition)” value stood at 15.45 ± 0.20 µg/mL (≈ 69.2 µM).

Consider `OCCSc1nnc(-c2ccccc2)o1` [Compound 5g, 2-[(5-phenyl-1,3,4-oxadiazol-2-yl)sulfanyl] ethan-1-ol], for which the melting point lay within 207 to 210 °C. In data set [1], the “% Inhibition (alpha-amylase)” value is given as 92.16% and the IC50 is 58.9 µM. For the same molecule, in the data set on α-glucosidase, the “% Inhibition (alpha-glucosidase)” value is 36.16% and the “IC50 µg/ml ± SEM (alpha-glucosidase inhibition)” value was determined as 80.8 ± 0.52 µg/mL (≈ 364 µM). In addition, in data set [2], the “cytotoxic effects against 3T3 (mouse fibroblast) cells, in words” value is “negligible cytotoxic effects”; the inhibition at 1.875 µM is around 1.5%; the inhibition at 3.75 µM is 3%; the inhibition at 7.5 µM turned out to be 8%. For the same molecule, in data set [2], the inhibition at 15 µM came out at 10% and the inhibition at 30 µM was found to be 19.6%.

For the molecule `OCCSc1nnc(-c2cc(O)c(O)c(O)c2)o1` [Compound 5f, 5-{5-[(2-hydroxyethyl)sulfanyl]-1,3,4-oxadiazol-2-yl} benzene-1,2,3-triol], the melting point was 265 to 270 °C. In addition, in data set [1], the “% Inhibition (alpha-amylase)” value stood at 19.04% and the IC50 is 772 µM. In the data set on α-glucosidase, the “% Inhibition (alpha-glucosidase)” value was 9.04% and the “IC50 µg/ml ± SEM (alpha-glucosidase inhibition)” value was 273.06 ± 0.04 µg/mL (≈ 1010 µM).

In the case of `OCCSc1nnc(-c2cccnc2)o1` [4a(b), 2-{[5-(pyridin-3-yl)-1,3,4-oxadiazol-2-yl]sulfanyl} ethan-1-ol], in data set [1], the “% Inhibition (alpha-amylase)” value was found to be 26% and the IC50 was 831 µM. Besides, on α-glucosidase, the “IC50 µg/ml ± SEM (alpha-glucosidase inhibition)” value is “No effect”.

`OCCSc1nnc(-c2ccncc2)o1` [4a(c), 2-{[5-(pyridin-4-yl)-1,3,4-oxadiazol-2-yl]sulfanyl} ethan-1-ol] displayed a melting point of 180 °C. In addition, in data set [1], the “% Inhibition (alpha-amylase)” value is 3.21% and the IC50 was 1770 µM. Also, in the data set on α-glucosidase, the “% Inhibition (alpha-glucosidase)” value was 16.3% and the “IC50 µg/ml ± SEM (alpha-glucosidase inhibition)” value came out at 299.11 ± 0.31 µg/mL (≈ 1340 µM).

In the case of `OCCSc1nnc(-c2cccc(Br)c2)o1` [Compound 5d, 2-{[5-(3-bromophenyl)-1,3,4-oxadiazol-2-yl]sulfanyl} ethan-1-ol], the melting point was in the range of 186 to 190 °C. In data set [1], the “% Inhibition (alpha-amylase)” value is given as 43.6% and the IC50 is 298 µM. Moreover, in the data set on α-glucosidase, the “% Inhibition (alpha-glucosidase)” value turned out to be 39.7% and the “IC50 µg/ml ± SEM (alpha-glucosidase inhibition)” value turned out to be 73.61 ± 0.02 µg/mL (≈ 244 µM).

In the case of `OCCN1C[C@H](O)[C@@H](O)[C@H](O)[C@H]1CO` [Miglitol, reference compound], in the data set with α-glucosidase, the “% Inhibition (alpha-glucosidase)” value turned out to be 98.9% and the “IC50 µg/ml ± SEM (alpha-glucosidase inhibition)” value is 11.47 ± 0.02 µg/mL (≈ 55.4 µM).

For the molecule `OCCSc1nnc(-c2ccc(O)cc2)o1` [Compound 5b, 4-{5-[(2-hydroxyethyl)sulfanyl]-1,3,4-oxadiazol-2-yl} phenol], in data set [1], the “% Inhibition (alpha-amylase)” value is recorded as 50.11% and the IC50 was 272 µM. Also, in the data set on α-glucosidase, the “% Inhibition (alpha-glucosidase)” value amounted to 41.8% and the “IC50 µg/ml ± SEM (alpha-glucosidase inhibition)” value worked out at 62.01 ± 0.92 µg/mL (≈ 260 µM).

For the molecule `OCCSc1nnc(-c2cccc(I)c2)o1` [Compound 5e, 2-{[5-(3-iodophenyl)-1,3,4-oxadiazol-2-yl]sulfanyl} ethan-1-ol], the melting point came out at 170 °C. Also, in data set [1], the “% Inhibition (alpha-amylase)” value is on record as 40.2% and the IC50 is 279 µM. In addition, in the data set on α-glucosidase, the “% Inhibition (alpha-glucosidase)” value came out at 40.2% and the “IC50 µg/ml ± SEM (alpha-glucosidase inhibition)” value is 68.02 ± 0.43 µg/mL (≈ 195 µM).

For the molecule `OCCSc1nnc(-c2ccccc2O)o1` [Compound 5a, 2-{5-[(2-hydroxyethyl)sulfanyl]-1,3,4-oxadiazol-2-yl} phenol], the melting point fell in the range of 165 to 170 °C. In data set [1], the “% Inhibition (alpha-amylase)” value is on record as 56.41% and the IC50 was 252 µM. Moreover, in the data set on α-glucosidase, the “% Inhibition (alpha-glucosidase)” value is listed as 98.14% and the “IC50 µg/ml ± SEM (alpha-glucosidase inhibition)” value was 12.27 ± 0.41 µg/mL (≈ 51.5 µM). In data set [2], the “cytotoxic effects against 3T3 (mouse fibroblast) cells, in words” value is recorded as “negligible cytotoxic effects”; the inhibition at 1.875 µM is 3%; the inhibition at 3.75 µM is 5%; the inhibition at 7.5 µM was 12%. Moreover, in data set [2], the inhibition at 15 µM came to 16% and the inhibition at 30 µM is 26.2%.

In turn, `OCCSc1nnc(-c2ccccc2Cl)o1` [Compound 5c, 2-{[5-(2-chlorophenyl)-1,3,4-oxadiazol-2-yl]sulfanyl} ethan-1-ol] came in with a melting point of 165 °C. Further, in data set [1], the “% Inhibition (alpha-amylase)” value amounted to 49.41% and the IC50 is 267 µM. In addition, in the data set on α-glucosidase, the “% Inhibition (alpha-glucosidase)” value stood at 40.04% and the “IC50 µg/ml ± SEM (alpha-glucosidase inhibition)” value amounted to 69.04 ± 0.27 µg/mL (≈ 269 µM).

What is called inhibition is the relative decrease from the control value, in per cent. What is called melting point is the temperature of the solid-liquid transition.
